Consider eight compounds from ChEMBL document CHEMBL1138060, “3-arylimino-2-indolones are potent and selective galanin GAL3 receptor antagonists” (J Med Chem, 2006).

Activity calls are given as the source filed them. The calls are words filed in the database; no cut-off is given here.

The target in one data set is T1, Galanin receptor type 3 (Homo sapiens, UniProt O60755).
T1 sequence (O60755 whole entry): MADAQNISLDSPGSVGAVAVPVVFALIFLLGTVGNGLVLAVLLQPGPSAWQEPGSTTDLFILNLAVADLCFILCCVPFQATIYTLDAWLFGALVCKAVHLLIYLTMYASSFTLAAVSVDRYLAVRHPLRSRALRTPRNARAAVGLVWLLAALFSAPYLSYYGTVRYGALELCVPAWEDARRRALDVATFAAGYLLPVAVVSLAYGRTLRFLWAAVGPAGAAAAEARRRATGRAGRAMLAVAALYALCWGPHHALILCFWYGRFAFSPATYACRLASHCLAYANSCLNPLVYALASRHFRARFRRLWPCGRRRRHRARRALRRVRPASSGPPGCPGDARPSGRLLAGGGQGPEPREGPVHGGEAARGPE
In words: Displacement of [125I]galanin from human GAL3. (Loss of bound radioactivity is the signal in a displacement assay; it reports binding, not function.)

A short description of data set [1]: Drug level in rat plasma at 10 mg/kg, pp after 2 hrs. In kind it is ADME, organism-based. On the set-up: dose 10 mg/kg.
Data set [2] can be described thus: Drug level in rat brain at 10 mg/kg, sc after 2 hrs. On the set-up: dose 10 mg/kg, route subcutaneous. The format is ADME, organism-based. As to conditions: read-out: Drug uptake.
The target in data set [3] is T2, 5-hydroxytryptamine receptor 4 (Homo sapiens, UniProt Q13639). In words: Binding affinity to human 5HT4.
The nature of data set [4]: Drug level in rat plasma at 10 mg/kg, sc after 2 hrs. On the set-up: dose 10 mg/kg, route subcutaneous. In kind it is ADME, organism-based.
A short description of data set [5]: Drug level in rat brain at 30 mg/kg, ip after 2 hrs. In kind it is ADME, organism-based. On the set-up: dose 30 mg/kg, route intraperitoneal. As to conditions: read-out: Drug uptake.
A short description of data set [6]: Drug level in rat plasma at 30 mg/kg, ip after 2 hrs. On the set-up: dose 30 mg/kg, route intraperitoneal. In kind it is ADME, organism-based.
A short description of data set [7]: Drug level in rat plasma at 30 mg/kg, ip after 4 hrs. On the set-up: dose 30 mg/kg, route intraperitoneal. In kind it is ADME, organism-based.
The target of data set [8] is T2, 5-hydroxytryptamine receptor 4. As to the kind of experiment: Agonist activity at human 5HT4 upto 10 uM. In kind it is functional.
Data set [9] can be described thus: Drug level in rat brain at 30 mg/kg, ip after 4 hrs. In kind it is ADME, organism-based. The arrangement: dose 30 mg/kg, route intraperitoneal. As to conditions: read-out: Drug uptake.
The target of data set [10] is T2, 5-hydroxytryptamine receptor 4. As to the kind of experiment: Antagonist activity against human 5HT4 upto 10 uM. The format is functional.

T2 sequence (Q13639 whole entry): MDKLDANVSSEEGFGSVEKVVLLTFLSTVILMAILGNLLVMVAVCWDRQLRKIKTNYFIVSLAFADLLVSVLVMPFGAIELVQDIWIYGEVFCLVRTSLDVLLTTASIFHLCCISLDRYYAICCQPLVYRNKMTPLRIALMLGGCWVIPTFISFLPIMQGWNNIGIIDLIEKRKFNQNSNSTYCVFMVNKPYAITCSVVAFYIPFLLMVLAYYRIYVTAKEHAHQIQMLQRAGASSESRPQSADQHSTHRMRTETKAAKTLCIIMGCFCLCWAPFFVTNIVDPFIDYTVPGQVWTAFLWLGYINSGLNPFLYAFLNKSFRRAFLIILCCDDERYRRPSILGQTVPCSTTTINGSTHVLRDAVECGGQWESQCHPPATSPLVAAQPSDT

Take `C=CCN1C(=O)/C(=N/c2ccc(Cl)c(Cl)c2)c2ccccc21`: the Ki (commonly the dissociation constant of the complex between target and ligand, obtained from inhibition or displacement) on Galanin receptor type 3 was found to be 150 nM.

With `O=C1Nc2ccccc2/C1=N\c1ccc(Cl)cc1`, the Ki on Galanin receptor type 3 stood at 850 nM.

For `O=C1/C(=N/c2cccc(C(F)(F)F)c2)c2ccccc2N1c1ccccc1`, the concentration at 2 h in data set [1] is 90 ng/mL; in data set [2], 350 ng/g; in data set [4] it was 990 ng/mL; in [5] it was 1060 ng/g; in [6], 780 ng/mL. For the same compound, in data set [3], affinity was put at a Ki of 72 nM. Moreover, the figures for the concentration at 4 h in data set [7] and in [9] were 1680 ng/mL and 1210 ng/g, respectively. The outcome in [8] and in data set [10] was inactive.

Consider `CCC(CC)N1C(=O)/C(=N/c2ccc(C(F)(F)F)cc2)c2ccccc21`, for which the Ki at Galanin receptor type 3 stood at 52 nM. In other words, the double-digit nanomolar range.

In the case of `O=C1Nc2ccccc2/C1=N\c1cccc(C(F)(F)F)c1`, at Galanin receptor type 3, affinity was put at a Ki of 596 nM.

Take `C#CCN1C(=O)/C(=N/c2cccc(C(F)(F)F)c2)c2ccccc21`: the Ki on Galanin receptor type 3 was determined as 89 nM.

For `COc1ccc(/N=C2/C(=O)Nc3ccccc32)cc1`, at Galanin receptor type 3, the Ki was > 10000 nM.

`O=C1Nc2ccccc2/C1=N\c1cccc(Cl)c1Cl`: the Ki at Galanin receptor type 3 is 437 nM.
